What was measured:
Assay type in all cases: in vivo
[1] = tested on: HSP17.6C-C1 of Arabidopsis thaliana; test: HSP expression test (HSP17.6C-C1 upstream region linked to GUS, 4-MU production); design: key: 4-MU per plant divided by 4-MU of 50 μM geldanamycin positive control; settings: soaked 6 hours at 22° C., positive control 50 μM geldanamycin
Protocol: First, a construct linked to β-glucuronidase (GUS) gene was introduced to 1 kb upstream of HSP17.6C-C1 of Arabidopsis thaliana (the family Brassicaceae) to prepare a mutant. Each naphthoquinone compound (shown in Table 1) dissolved in DMSO was diluted to 1 μM, 10 μM, 100 μM, or 1000 μM (final concentration) with deionized water to prepare a test solution of each example (final concentration of DMSO: 1.0% by volume). A 50 μM geldanamycin solution was similarly prepared as a positive control.
Next, two individuals of 7-day-old Arabidopsis thaliana mutants grown in a ⅕ MS medium were soaked in 300 μL of the test solution of each example or the positive control at 22° C. for 6 hours. The Arabidopsis thaliana was washed with deionized water, then soaked in 200 μL of a 4-methylumbelliferyl-β-D-glucuronide hydrate solution containing a surfactant, and incubated at 22° C. for 16 hours in the dark. The fluorescence intensity of the supernatant was measured, and the amount of 4-methylumbelliferone (4-MU) production per plant was calculated. The calculated value of 4-MU was divided by the value of 4-MU of the positive control to calculate a ratio vs. positive control. A higher numerical value means that HSP was expressed at a larger level.
Each shikonin compound or alkannin compound (shown in Table 2) dissolved in DMSO was diluted to 1 μM, 10 μM, 100 μM, or 1000 μM (final concentration) with deionized water to prepare a test solution of each example (final concentration of DMSO: 1.0% by volume). A 50 μM geldanamycin solution was similarly prepared as a positive control. The other test procedures were performed in the same way as in Test Example 1. The calculated value of 4-MU was divided by the value of 4-MU of the positive control to calculate a ratio vs. positive control. […]

Arabidopsis thaliana = test: Heat tolerance induction test based on chlorophyll concentration; settings: 50 μM in medium; heat-treated at 44° C. for 1 hour; 3 days culture after
Protocol: A ⅕ MS medium was prepared in a 6-well plate, and filter paper was placed thereon. 12 individuals of wild-type Arabidopsis thaliana were seeded per well and grown at 22° C. for 7 days in a plant incubator under 16-hour light and 8-hour dark conditions. Next, the naphthoquinone compound of each example (shown in Table 3) dissolved in DMSO was added to a ⅕ MS medium, and each medium (final concentration: 50 μM) was prepared in a 6-well plate (final concentration of DMSO: 1.0% by volume). A medium containing 1.0% by volume of DMSO was used as a control.
The Arabidopsis thaliana grown for 7 days in the 6-well plate was transplanted, together with the filter paper, to the medium containing the compound and cultured for 1 day in a plant incubator. The plate was placed in a plastic bag and heat-treated at 44° C. for 1 hour in a water bath. After the heat treatment, culture was performed for 3 days in a plant incubator. The leaves of 4 Arabidopsis thaliana individuals were cut out, and chlorophyll was extracted with 300 μL of ethanol. The absorbance of each extract was measured at 649 nm and 665 nm, and the chlorophyll concentration (mg/L) was calculated. A higher chlorophyll concentration means that heat tolerance is better.
The shikonin compound of each example (shown in Table 4) dissolved in DMSO was added to a ⅕ MS medium, and each medium (final concentration: 50 μM) was prepared in a 6-well plate (final concentration of DMSO: 1.0% by volume). A medium containing 1% by volume of DMSO was used as a control. The other test procedures were performed in the same way as in Test Example 3.
The Lithospermi radix extract used was Shikonix Liquid (BG) (trade name, manufactured by Ichimaru Pharcos Co., Ltd.) containing a Lithospermum erythrorhizon root extract. The Shikonix Liquid contained, as major components, shikonin compounds such as acetylshikonin, β-hydroxyisovalerylshikonin, and isobutyrylshikonin. The Shikonix Liquid also contained, as additional minor components, α-methyl-n-butylshikonin, β,β-dimethylacrylshikonin, isovalerylshikonin, and shikonin.
The Shikonix Liquid (BG) was added at a dilution ratio of 150-fold to a ⅕ MS medium. The same amount of water was added as a control. ThermoZyme (manufactured by Fujimikogyo Co., Ltd.) was added at a dilution ratio of 150-fold as a positive control (Reference Example). The other test procedures were performed in the same way as in Test Example 3.

maize [2] = test: Drought tolerance improvement test of maize; settings: 10 μM, 2 mL/cell; 19 days without water, counted 5 days after water addition
Protocol: Four parts each involving 9 cells (3×3) were cut out of a 72-cell tray. Seedling soil was placed therein, and water was added. 4 seeds of maize were seeded per cell. The temperature was set to 20° C. using a plant growth chamber, followed by cultivation under 16-hour light and 8-hour dark conditions. After budding, each naphthoquinone compound dissolved in DMSO was diluted to 10 μM (final concentration) with deionized water to prepare a test solution of each example (final concentration of DMSO: 1.0% by volume). Each test solution was sprayed to leaf surface in one of the cell trays. The volume of the test solution sprayed was set to 2 mL/cell. The same volume of water was sprayed to the other cell tray and used as a control. After the spraying, cultivation was continued without the addition of water. 19 days after the spraying, water was added to the soil. 5 days after the water addition, the number of maize survivors was counted and divided by the initial number of growing plants to calculate a survival rate (%).

maize [3] = test: Salt tolerance improvement test of maize; settings: 10 μM, 2 mL/cell; 1.0% NaCl five times every two days; fresh weight
Protocol: (§1) Two parts each involving 9 cells (3×3) were cut out of a 72-cell tray. Seedling soil was placed therein, and water was added. 4 seeds of maize were seeded per cell. The temperature was set to 20° C. using a plant growth chamber, followed by cultivation under 16-hour light and 8-hour dark conditions. After budding, Shikonix Liquid (BG) (manufactured by Ichimaru Pharcos Co., Ltd.) was diluted 500-fold and sprayed as the Lithospermi radix extract to leaf surface in one of the cell trays. The volume of the Shikonix Liquid sprayed was set to 2 mL/cell. The same volume of water was sprayed to the other cell tray and used as a control. Two days later, a 1.0% NaCl solution was prepared and absorbed from the underside of each cell tray. The NaCl solution treatment was performed five times every two days. The above-ground parts were cut off, and their fresh weights were measured. An average value (g/plant) was calculated.
as §1, with “Four parts” for “Two parts”, “budding, each naphthoquinone compound dissolved in DMSO” for “budding, Shikonix Liquid (BG) (manufactured by Ichimaru Pharcos Co., Ltd.)”, “diluted to 10 μM (final concentration) with deionized water to prepare a test solution of each example (final concentration of DMSO: 1.0% by volume). Each test solution was” for “diluted 500-fold and”, “sprayed” for “sprayed as the Lithospermi radix extract”, “the test solution” for “the Shikonix Liquid”

SMILES | Ratio of 4-MU amount vs. positive control ([1]; 1 μM) | Ratio of 4-MU amount vs. positive control ([1]; 10 μM) | Ratio of 4-MU amount vs. positive control ([1]; 100 μM) | Ratio of 4-MU amount vs. positive control ([1]; 1000 μM) | Chlorophyll concentration (Arabidopsis thaliana) [mg/L] | Survival rate (maize [2]) [%] | Above-ground part weight (maize [3]) [g/plant]
CC(C)=CC[C@@H](O)C1=CC(=O)c2c(O)ccc(O)c2C1=O [Example 13, Shikonin] | 0.04 | 0.92 | 1.52 | 0.85 | 6.28 | – | –
CC(C)=CCC(OC(=O)C=C(C)C)C1=CC(=O)c2c(O)ccc(O)c2C1=O (stereo not drawn) [Example 19, β,β-Dimethylacrylshikonin] | 0.02 | 0.95 | 1.35 | 2.28 | – | – | –
O=C1C(Cl)=C(Cl)C(=O)c2cc([N+](=O)[O-])ccc21 [Example 9, 2,3-Dichloro-6-nitro-1,4-naphthoquinone] | 0.17 | 0.91 | 0.66 | 0.48 | – | – | –
CC(C)=CCC(OC(=O)CC(C)C)C1=CC(=O)c2c(O)ccc(O)c2C1=O (stereo not shown) [Example 16, Isovalerylshikonin] | 0.04 | 0.93 | 0.85 | 0.76 | – | – | –
O=C1C(Cl)=C(Cl)C(=O)c2ccccc21 [Example 6, 2,3-Dichloro-1,4-naphthoquinone] | 0.47 | 5.12 | 1.86 | 1.16 | 6.21 | 53 | 0.726
CC(C)=CC[C@@H](OC(=O)CC(C)(C)O)C1=CC(=O)c2c(O)ccc(O)c2C1=O [Example 17, β-Hydroxyisovalerylshikonin] | 0.10 | 0.71 | 0.80 | 0.25 | 5.57 | – | –
CC(=O)O[C@H](CC=C(C)C)C1=CC(=O)c2c(O)ccc(O)c2C1=O [Example 14, Acetylshikonin] | 0.05 | 1.03 | 1.00 | 0.81 | 5.73 | – | –
CC(C)=CC[C@H](O)C1=CC(=O)c2c(O)ccc(O)c2C1=O [Example 20, Alkannin] | 0.04 | 0.11 | 0.62 | 1.13 | – | – | –
CC1=CC(=O)c2ccccc2C1=O [Example 10, 2-Methyl-1,4-naphthoquinone] | 0.04 | 0.05 | 0.09 | 0.08 | – | – | –
O=C1C=CC(=O)c2c(O)cccc21 [Example 3, 5-Hydroxy-1,4-naphthoquinone] | 0.17 | 0.14 | 0.59 | 0.46 | – | – | –
CCC(C)C(=O)O[C@H](CC=C(C)C)C1=CC(=O)c2c(O)ccc(O)c2C1=O (stereo partly drawn) [Example 18, α-Methyl-n-butylshikonin] | 0.02 | 1.00 | 1.40 | 2.76 | – | – | –
O=C1C=CC(=O)c2ccccc21 [Example 1, 1,4-Naphthoquinone] | 0.13 | 0.76 | 0.27 | 0.03 | – | – | –
CC(C)=CC[C@@H](OC(=O)C(C)C)C1=CC(=O)c2c(O)ccc(O)c2C1=O [Example 15, Isobutyrylshikonin] | 0.03 | 1.79 | 1.19 | 1.23 | 6.29 | – | –
CC1=CC(=O)c2c(O)cccc2C1=O [Example 4, 5-Hydroxy-2-methyl-1,4-naphthoquinone] | 0.13 | 1.0 | 0.18 | 0.06 | – | – | –
O=C1C(Cl)=C(Cl)C(=O)c2c1cccc2[N+](=O)[O-] [Example 8, 2,3-Dichloro-5-nitro-1,4-naphthoquinone] | 0.15 | 1.00 | 0.38 | 0.46 | – | – | –
O=C1C=C(O)C(=O)c2ccccc21 [Example 2, 2-Hydroxy-1,4-naphthoquinone] | 0.14 | 0.15 | 0.47 | 0.04 | – | – | –
COC1=CC(=O)c2ccccc2C1=O [Example 11, 2-Methoxy-1,4-naphthoquinone] | 0.06 | 0.04 | 0.21 | 0.11 | – | – | –
NC1=C(Cl)C(=O)c2ccccc2C1=O [Example 12, 2-Amino-3-chloro-1,4-naphthoquinone] | 0.06 | 0.15 | 0.19 | 0.14 | – | – | –

Reference: US11638425B2, “Agent for inducing stress tolerance in plants” (Menicon Co. Ltd., priority 2017, dated 2023)
